Experimental data published in US20070179161A1, “Pyrazolopyrimidine compounds and their use in medicine” (VERNALIS (CAMBRIDGE) LIMITED., priority 2003, published 2007).

Assays:
Format in all cases: biochemical
[1] = target: CDK-2 enzyme, complexed with cyclin A (Homo sapiens, UniProt P24941); assay: CDK2 enzyme inhibition assay (33P phosphorylation of peptide […], filter plate); details: CDK-2/cyclin A, 0.1 mM ATP, 40 min at 30° C.
Method in brief: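 Cyclin A–complexed CDK2 (0.4 U/ml) incubated with inhibitor, 0.03 mM peptide, 0.1 mM ATP plus 33P-γ-ATP in HEPES pH 7.5, 7.5 mM Mg acetate, 0.1 mg/ml BSA, 40 min at 30 °C. Stopped with phosphoric acid; phosphorylated peptide captured on filter plates and counted by scintillation.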

GST-Chk1 enzyme = target: T1, GST-Chk1 enzyme (Homo sapiens, UniProt O14757); assay: Chk1 kinase inhibition assay (33P phosphorylation of Chktide, filter plate); details: 0.01 mM ATP, 11 nM GST-Chk1, 40 minutes at 30° C.; read-out: Chk1 IC50
T1 sequence (O14757 1-476): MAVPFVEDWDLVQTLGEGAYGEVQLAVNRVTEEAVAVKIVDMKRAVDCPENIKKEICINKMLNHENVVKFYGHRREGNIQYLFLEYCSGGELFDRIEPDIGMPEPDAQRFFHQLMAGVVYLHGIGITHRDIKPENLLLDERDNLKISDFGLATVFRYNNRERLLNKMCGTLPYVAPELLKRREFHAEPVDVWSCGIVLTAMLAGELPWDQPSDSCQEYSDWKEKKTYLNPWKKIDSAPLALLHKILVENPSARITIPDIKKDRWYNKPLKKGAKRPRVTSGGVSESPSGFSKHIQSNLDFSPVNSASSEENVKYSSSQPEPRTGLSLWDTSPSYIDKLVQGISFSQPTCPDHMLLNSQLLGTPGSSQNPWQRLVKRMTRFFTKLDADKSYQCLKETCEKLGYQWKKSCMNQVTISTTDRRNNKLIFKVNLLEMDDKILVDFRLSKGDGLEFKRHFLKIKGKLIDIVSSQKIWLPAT
Protocol: The assay mixture containing the inhibitor and Chk1 enzyme was mixed together in a microtiter plate in a final volume of 50 μl and incubated for 40 minutes at 30° C.
The reaction was stopped by adding 50 μl of 50 mM phosphoric acid. 90 μl of the mixture was transferred to a pre-wetted 96-well Multiscreen MAPHNOB filtration plate (Millipore) and filtered on a vacuum manifold. […] The filtration plate was dried for 10 min at 65° C., scintillant added and phosphorylated peptide quantified in a scintillation counter (Trilux, PerkinElmer)

PDK1 enzyme = target: T2, PDK1 enzyme (Homo sapiens, UniProt O15530); assay: PDK1 kinase inhibition assay (33P phosphorylation of synthetic peptide, filter plate); details: 0.01 mM ATP, 60 min at 30° C.; read-out: PDK1 IC50
T2 sequence (O15530 1-556): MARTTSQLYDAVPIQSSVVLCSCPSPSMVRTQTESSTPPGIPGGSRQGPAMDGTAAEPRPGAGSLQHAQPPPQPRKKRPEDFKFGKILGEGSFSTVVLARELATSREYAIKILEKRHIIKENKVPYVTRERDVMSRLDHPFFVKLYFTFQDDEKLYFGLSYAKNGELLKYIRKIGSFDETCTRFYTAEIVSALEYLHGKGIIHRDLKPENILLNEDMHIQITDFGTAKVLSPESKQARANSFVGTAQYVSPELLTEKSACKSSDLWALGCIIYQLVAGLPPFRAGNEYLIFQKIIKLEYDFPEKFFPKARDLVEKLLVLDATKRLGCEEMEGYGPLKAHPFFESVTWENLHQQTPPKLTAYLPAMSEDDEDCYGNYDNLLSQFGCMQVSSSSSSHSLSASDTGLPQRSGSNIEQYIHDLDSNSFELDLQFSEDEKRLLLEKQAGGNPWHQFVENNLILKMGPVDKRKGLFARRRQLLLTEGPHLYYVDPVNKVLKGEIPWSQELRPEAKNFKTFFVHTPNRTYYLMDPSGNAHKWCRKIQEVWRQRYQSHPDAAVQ
Method in brief: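 PDK1 and inhibitor incubated 60 min at 30° C with 0.01 mM ATP plus 33P-γ-ATP, 0.075 mM peptide, 7.5 mM Mg acetate, 0.1 mg/ml BSA in 0.05 M Tris.HCl pH 7.5. Stopped with phosphoric acid; phosphorylated peptide captured on filter plate and counted by scintillation.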

Compound | IC50 [1] [µM] | IC50 (GST-Chk1 enzyme) [µM] | IC50 (PDK1 enzyme) [µM]
N[C@H]1CC[C@@H](Nc2cc(Nc3ccc(S(=O)(=O)N4CCCC4)cc3)n3ncc(Br)c3n2)CC1 [Example 178] | 0.15 | 0.07 | 2.58
CC(C)c1cnn2c(Nc3ccc(S(C)(=O)=O)nc3)cc(N[C@H]3CC[C@H](N)CC3)nc12 [Example 107] | 0.101 | 19.6 | 96.5
CC(C)c1cnn2c(Nc3ccc(S(=O)(=O)N(C)C)cc3)cc(N3CCC(C(N)=O)CC3)nc12 [Example 73] | 1.48 | > 200 | > 200
CCOC(=O)c1cc(Nc2ccc(S(=O)(=O)N(C)C)cc2)n2ncc(C(C)C)c2n1 [Example 112] | 0.274 | > 200 | > 200
Oc1cccc(-c2cc(Nc3ccccc3)n3nccc3n2)c1 [Example 6] | 5.65 | > 200 | > 200
NS(=O)(=O)c1ccc(Nc2cc(Cl)nc3ccnn23)cc1 [Example 12] | 0.72 | > 200 | > 200
CC(C)COc1cc(Nc2ccc(S(=O)(=O)N(C)C)cc2)n2ncc(C(C)C)c2n1 [Example 40] | 1.16 | > 200 | > 200
CC(C)c1cnn2c(Nc3ccc(S(=O)(=O)N(C)C)cc3)cc(N3CCN(CC4CCN(C)CC4)CC3)nc12 [Example 109] | 10.3 | 15.2 | > 200
CCc1cnn2c(Nc3ccc(C(N)=O)cc3)cc(Cl)nc12 [Example 149] | 0.14 | 10 | 57
CCc1cnn2c(Nc3ccc(S(C)(=O)=O)cc3)cc(N[C@H]3CC[C@@H](N)CC3)nc12 [Example 173] | 2.17 | 4 | 15.2
CCc1cnn2c(Nc3ccc(S(C)(=O)=O)cc3)cc(OCC(C)C)nc12 [Example 44] | 0.179 | > 200 | 79.1
CC(C)c1cnn2c(Nc3ccc(S(=O)(=O)N(C)C)cc3)cc(N3CCC(C(=O)O)CC3)nc12 [Example 78] | 4.79 | > 200 | > 200
CNS(=O)(=O)c1ccc(Nc2cc(N[C@H]3CC[C@H](N)CC3)nc3c(C(C)C)cnn23)cc1 [Example 67] | 0.03 | > 200 | 4.64
CC(C)c1cnn2c(Nc3ccc(S(=O)(=O)N(C)CCO)cc3)cc(Cl)nc12 [Example 34] | 0.127 | > 200 | > 200
CC(C)c1cnn2c(Nc3ccc(S(=O)(=O)N(C)C)cc3)cc(C(=O)O)nc12 [Example 117] | 23.3 | > 200 | > 200
CC(C)c1cnn2c(Nc3ccc(S(=O)(=O)N(C)C)cc3)cc(N(C)c3ccncc3)nc12 [Example 119] | 22.7 | > 200 | > 200
CC(C)c1cnn2c(Nc3ccc(S(=O)(=O)N(C)C)cc3)cc(N[C@H]3CC[C@H](NC(=O)CN(C)C)CC3)nc12 [Example 86] | 0.03 | > 200 | > 200
CN(C)S(=O)(=O)c1ccc(Nc2cc(N[C@H]3CC[C@H](N)CC3)nc3c(Br)cnn23)cc1 [Example 31, 3-bromo-5-(trans-4-aminocyclohexylamino)-7-(4-(N,N-dimethylsulphonamido)phenylamino)pyrazolo[1,5-a]pyrimidine] | 0.008 | 1.27 | 0.325
CN(C)S(=O)(=O)c1ccc(Nc2cc(N[C@H]3CC[C@H](N)CC3)nc3c(C4CCCC4)cnn23)cc1 [Example 167] | 0.004 | 0.72 | 168
CC(C)c1cnn2c(Nc3ccc(S(N)(=O)=O)cc3)cc(Cl)nc12 [Example 32] | 0.062 | > 200 | > 200
CC(C)c1cnn2c(Nc3ccc(S(=O)(=O)N(C)C)cc3)cc(N3CCCCC3)nc12 [Example 50] | 1.01 | > 200 | > 200

Compound | IC50 [1] [µM] | IC50 (GST-Chk1 enzyme) [µM] | IC50 (PDK1 enzyme) [µM]
CCN(CC)[C@H]1CC[C@H](Nc2cc(Nc3ccc(S(=O)(=O)N(C)C)cc3)n3ncc(C(C)C)c3n2)CC1 [Example 100] | 0.092 | 29.3 | 30.3
CC(C)c1cnn2c(Nc3ccc(S(=O)(=O)N(C)C)cc3)cc(OC3CCCC3)nc12 [Example 54] | 1.31 | > 200 | > 200
CC(C)c1cnn2c(Nc3ccc(S(=O)(=O)N(C)C)cc3)cc(N(C)C3CCN(C)CC3)nc12 [Example 87] | 0.84 | 16.3 | > 200
CS(=O)(=O)c1ccc(Nc2cc(N[C@H]3CC[C@@H](N)CC3)nc3c(Br)cnn23)cc1 [Example 164] | 0.222 | 0.25 | 4.7
CCc1cnn2c(Nc3ccc(S(C)(=O)=O)cc3)ccnc12 [Example 47] | 0.727 | > 200 | > 200
CC(C)c1cnn2c(Nc3ccc(S(=O)(=O)NCCN(C)C)cc3)cc(Cl)nc12 [Example 77] | 0.039 | > 200 | 9.49
CC(C)c1cnn2c(Nc3ccc(S(=O)(=O)N(C)C)cc3)cc(NCC3CCNCC3)nc12 [Example 80] | 0.682 | > 200 | 2.56
N[C@H]1CC[C@H](Nc2cc(Nc3ccc(Oc4ccccc4)cc3)n3ncc(Cl)c3n2)CC1 [Example 187] | 0.054 | 2 | 2
CC(C)c1cnn2c(Nc3ccc(S(=O)(=O)N(C)C)cc3)cc(NCCCN3CCOCC3)nc12 [Example 102] | 0.965 | > 200 | > 200
CC(C)COc1cc(Nc2ccc(S(C)(=O)=O)cc2)n2ncc(C(C)C)c2n1 [Example 41] | 1.2 | > 200 | > 200
CN(C)S(=O)(=O)c1ccc(Nc2cc(N[C@H]3CC[C@@H](N)CC3)nc3c(Br)cnn23)cc1 [Example 140] | 3.66 | 0.5 | 5.29
CNS(=O)(=O)c1ccc(Nc2cc(Cl)nc3c(C(C)C)cnn23)cc1 [Example 46] | 0.076 | > 200 | 109
CC(C)c1cnn2c(Nc3ccc(S(=O)(=O)N(C)C)cc3)cc(C(=O)N3CCC(O)CC3)nc12 [Example 120] | 0.594 | > 200 | > 200
CC(C)c1cnn2c(Nc3ccc(S(=O)(=O)N(C)C)cc3)cc(N(C)CCCN(C)C)nc12 [Example 74] | 7.27 | 18.6 | > 200
CC(C)c1cnn2c(Nc3ccc(S(=O)(=O)N(C)C)cc3)cc(NC3CCN(C)CC3)nc12 [Example 69] | 0.181 | 19.3 | 31.6
CN(C)S(=O)(=O)c1ccc(Nc2cc(N[C@H]3CC[C@H](N)CC3)nc3c(C#N)cnn23)cc1 [Example 199] | 0.007 | 0.33 | 1.35
COCCNS(=O)(=O)c1ccc(Nc2cc(Cl)nc3c(C(C)C)cnn23)cc1 [Example 36] | 0.715 | > 200 | > 200
CC(C)c1cnn2c(Nc3ccc(S(=O)(=O)N4CCC(O)CC4)cc3)cc(Cl)nc12 [Example 33] | 0.271 | > 200 | > 200
CCc1cnn2c(Nc3ccc(S(C)(=O)=O)cc3)cc(N(C)C)nc12 [Example 45] | 1.13 | > 200 | > 200
Cc1cccc(-c2cc(Nc3ccc(S(=O)(=O)N4CCOCC4)cc3)n3nccc3n2)c1 [Example 13] | 1.76 | > 200 | > 200
